Source: patent US7851484B2, “Certain chemical entities, compositions, and methods” (Cytokinetics, Inc., priority 2007, dated 2010)

System: SKM MF
Assay: SKM MF AC1.4: ATPase screen of skeletal sarcomeric proteins with PK/LDH coupled enzyme system
Assay type: biochemical
Design: AC1.4 Median: unit not given here
Settings: for SKM MF AC1.4 (μM): median value (footnote †)
Description: For example, test compounds can be assayed in a highly parallel fashion by using multiwell plates by placing the compounds either individually in wells or testing them in mixtures. Assay components including the target protein complex, coupling enzymes and substrates, and ATP can then be added to the wells and the absorbance or fluorescence of each well of the plate can be measured with a plate reader.
In some embodiments, the method uses a 384 well plate format and a 25 μL reaction volume. A pyruvate kinase/lactate dehydrogenase coupled enzyme system (Huang T G and Hackney D D. (1994) J Biol Chem 269(23):16493-501) can be used to measure the rate of ATP hydrolysis in each well. As will be appreciated by those in the art, the assay components are added in buffers and reagents. The incubation periods can be optimized to give adequate detection signals over the background. The assay can be done in real time giving the kinetics of ATP hydrolysis which increases the signal to noise ratio of the assay.
Just prior to screening, the actin, tropomyosin, and troponin complex are mixed together in the desired ratio (e.g., 7:1:1) to achieve maximal calcium regulation of the actin filament. The screen is conducted at a pCa=6.5. This calcium concentration is in the physiological range during muscle contraction.
To measure the generation of ADP during the reaction, a pyruvate kinase/lactate dehydrogenase/NADH coupled enzyme system (PK/LDH) is added to the actin. The myosin is kept separately. The plates are read in real time so that kinetic curves are obtained. These compounds are in DMSO and were already spotted onto the bottoms of 384 well plates at 10 to 40 μg/ml final concentration.

CCC(CC)n1c(O)nc2ncc(Cl)cc21 [6-chloro-1-(pentan-3-yl)-1H-imidazo[4,5-b]pyridin-2-ol]
SKM MF AC1.4: 0.82 µM
AC1.4 Median: 1.6866

CCCC(CCC)n1c(O)nc2ncc(Cl)cc21 [6-chloro-1-(propylbutyl)imidazo[4,5-b]pyridin-2-ol]
AC1.4 Median: 3.7477

COCCCCn1c(O)nc2ncc(Cl)cc21 [6-chloro-1-[(methoxymethyl)propyl]imidazo[4,5-b]pyridin-2-ol]
AC1.4 Median: 45.5421

Oc1nc2ncc(Cl)cc2n1CCCC(F)(F)F [6-chloro-1-[(trifluoromethyl)propyl]imidazo[4,5-b]pyridin-2-ol]
AC1.4 Median: 8.0408

C=CCn1c(O)nc2ncc(Cl)c(I)c21 [6-chloro-7-iodo-1-prop-2-enylimidazo[4,5-b]pyridin-2-ol]
AC1.4 Median: 23.0211

CCc1cnc2nc(O)n(C(CC)CC)c2c1 [6-ethyl-1-(pentan-3-yl)-1H-imidazo[4,5-b]pyridin-2-ol]
AC1.4 Median: 41.9678
SKM MF AC1.4 (μM): 41.9678^† μM

C#Cc1cnc2nc(O)n(C(CC)CC)c2c1 [6-ethynyl-1-(pentan-3-yl)-1H-imidazo[4,5-b]pyridin-2-ol]
AC1.4 Median: 0.1667
SKM MF AC1.4 (μM): 0.1563^† μM

CCC(CC)n1c(O)nc2ncc(F)cc21 [6-fluoro-1-(pentan-3-yl)-1H-imidazo[4,5-b]pyridin-2-ol]
AC1.4 Median: 12.9347
SKM MF AC1.4 (μM): 12.9347^† μM

CCC(CC)n1c(O)nc2ncc(C)cc21 [6-methyl-1-(pentan-3-yl)-1H-imidazo[4,5-b]pyridin-2-ol]
SKM MF AC1.4: 5.7 µM
AC1.4 Median: 10.2517

CCC(CC)n1c(O)nc2ncc(Cl)c(/C=N/OCC(C)C)c21 [7-[(1E)-2-(2-methylpropoxy)-2-azavinyl]-6-chloro-1-(ethylpropyl)imidazo[4,5-b]pyridin-2-ol]
AC1.4 Median: 11.4532

CCC(CC)n1c(O)nc2ncc(Cl)c(/C=N/OCc3ccccc3)c21 [7-[(1E)-2-(phenylmethoxy)-2-azavinyl]-6-chloro-1-(ethylpropyl)imidazo[4,5-b]pyridin-2-ol]
AC1.4 Median: 39.7159

CCC(CC)n1c(O)nc2ncc(Cl)c(/C=N/OC(C)(C)C)c21 [7-[(1E)-2-(tert-butoxy)-2-azavinyl]-6-chloro-1-(ethylpropyl)imidazo[4,5-b]pyridin-2-ol]
AC1.4 Median: 1.8945

CCC(CC)n1c(O)nc2ncc(Cl)c(/C=N\OCC(C)C)c21 [7-[(1Z)-2-(2-methylpropoxy)-2-azavinyl]-6-chloro-1-(ethylpropyl)imidazo[4,5-b]pyridin-2-ol]
AC1.4 Median: 22.4644

CCC(CC)n1c(O)nc2ncc(Cl)c(/C=N\OCc3ccccc3)c21 [7-[(1Z)-2-(phenylmethoxy)-2-azavinyl]-6-chloro-1-(ethylpropyl)imidazo[4,5-b]pyridin-2-ol]
AC1.4 Median: 42.0392

CCC(CC)n1c(O)nc2ncc(Cl)c(/C=N\OC(C)(C)C)c21 [7-[(1Z)-2-(tert-butoxy)-2-azavinyl]-6-chloro-1-(ethylpropyl)imidazo[4,5-b]pyridin-2-ol]
AC1.4 Median: 19.5317

CCOC(=O)CSSCc1c(Cl)cnc2nc(O)n(C(CC)CC)c12 [ethyl 2-({[6-chloro-1-(ethylpropyl)-2-hydroxyimidazo[4,5-b]pyridin-7-yl]methyl}disulfanyl)acetate]
AC1.4 Median: 11.7273

COC(=O)N1CCN(C[C@@H](CC(C)C)n2c(O)nc3cc(Cl)cnc32)CC1 [methyl 4-[(2R)-2-(6-chloro-2-hydroxyimidazo[4,5-b]pyridinyl)-4-methylpentyl]piperazinecarboxylate]
AC1.4 Median: 8.3875

COC(=O)c1c(Cl)cnc2nc(O)[nH]c12 [methyl 6-chloro-2-hydroxyimidazo[4,5-b]pyridine-7-carboxylate]
AC1.4 Median: 1.7026

CCC(CC)n1c(O)nc2ncc(Cl)c(C3=CCN(C(=O)OC(C)(C)C)CC3)c21 [tert-butyl 4-[6-chloro-1-(ethylpropyl)-2-hydroxyimidazo[4,5-b]pyridin-7-yl]-1,2,5,6-tetrahydropyridinecarboxylate]
AC1.4 Median: 26.7443

[1-(ethylpropyl)-6-ethynyl-2-hydroxyimidazo[4,5-b]pyridin-7-yl]-N-methylcarboxamide
AC1.4 Median: 6.7023

methyl 1-(ethylpropyl)-2-hydroxyimidazo[4,5-b]pyridine-7-carboxylate
AC1.4 Median: 17.1735

methyl 4-[(2R)-2-(6-chloro-2-hydroxyimidazo[4,5-b]pyridinyl)butyl]piperazinecarboxylate
AC1.4 Median: 18.2493

tert-butyl 4-[6-chloro-1-(ethylpropyl)-2-hydroxyimidazo[4,5-b]pyridin-7-yl]-4-hydroxypiperidinecarboxylate
AC1.4 Median: 28.2335
